From patent US9056865B2, “Pyridine-2-derivatives as smoothened receptor modulators” (Pfizer Inc., priority 2010, dated 2015)

Key:
[1] = target: human Smo (Homo sapiens (Human), UniProt Q99835); test: Smo radioligand competition binding assay
Procedure, shortened: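 Membranes from HEK293 cells expressing surface human Smo 181-781 (40 μg protein/well) incubated 2 h at room temperature with test compound and tritiated Smo antagonist (3 nM), pH 7.5 Tris buffer; filtration and scintillation counting. Non-specific binding defined with 30 μM cold antagonist; IC50 from four-parameter sigmoidal fit.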

[2] = system: Gli-Luc/MEF cells; test: Gli-Luc/MEF assay; assay type: cell-based, mouse; settings: Mus musculus, MEF; Shh-stimulated luciferase, 48 hours
Procedure, shortened: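 Mouse embryonic fibroblasts from Gli-Luc transgenic mice (luciferase under Gli response element) dosed with compounds (final […], 3-fold series), then stimulated with recombinant mouse Shh at final 2 μg/mL. After 48 h at 37 °C, luminescence read by Bright-Glo; IC50 from inhibition of Shh-induced signal.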

[3] = system: Gli1; test: Down regulation of Smo targeted gene Gli1 in the brain, primary medulloblastoma model; assay type: in vivo; settings: Ptch1+/-p53-/- medulloblastoma mice, 30 mg/kg once daily for 4 days oral gavage, 6 hours post last dose
Experimental: Down Regulation of Smo Targeted Gene Gli1 in the Brain by A-116
In this study, 6-week-old Ptch1+/−p53−/− primary medulloblastoma mice (n=3 per group) were treated with 30 mg/kg of A-116 or vehicle (0.5% methylcellulose (MC)) once daily for 4 days by oral gavage. On day 4, at 6 hours post last dose, mice were euthanized and tumor bearing cerebella were removed. Total RNA was extracted from the tumor tissue together with the cerebella using the RNeasy Mini Kit (Qiagen). Subsequently, cDNA was synthesized from the RNA using High Capacity cDNA Reverse Transcription Kit (Applied Biosystems) according to the protocol provided by the vendor. Quantitative real-time PCR analysis of Smo targeted gene Gli1 expression level was performed using RT-PCR ABI Prism 7900 sequence detection system (Applied Biosystems).

[4] = target: P-glycoprotein (Homo sapiens (Human), UniProt P08183); test: P-glycoprotein substrate status; assay type: in vitro ADME
Chain of P-glycoprotein (P08183 whole entry): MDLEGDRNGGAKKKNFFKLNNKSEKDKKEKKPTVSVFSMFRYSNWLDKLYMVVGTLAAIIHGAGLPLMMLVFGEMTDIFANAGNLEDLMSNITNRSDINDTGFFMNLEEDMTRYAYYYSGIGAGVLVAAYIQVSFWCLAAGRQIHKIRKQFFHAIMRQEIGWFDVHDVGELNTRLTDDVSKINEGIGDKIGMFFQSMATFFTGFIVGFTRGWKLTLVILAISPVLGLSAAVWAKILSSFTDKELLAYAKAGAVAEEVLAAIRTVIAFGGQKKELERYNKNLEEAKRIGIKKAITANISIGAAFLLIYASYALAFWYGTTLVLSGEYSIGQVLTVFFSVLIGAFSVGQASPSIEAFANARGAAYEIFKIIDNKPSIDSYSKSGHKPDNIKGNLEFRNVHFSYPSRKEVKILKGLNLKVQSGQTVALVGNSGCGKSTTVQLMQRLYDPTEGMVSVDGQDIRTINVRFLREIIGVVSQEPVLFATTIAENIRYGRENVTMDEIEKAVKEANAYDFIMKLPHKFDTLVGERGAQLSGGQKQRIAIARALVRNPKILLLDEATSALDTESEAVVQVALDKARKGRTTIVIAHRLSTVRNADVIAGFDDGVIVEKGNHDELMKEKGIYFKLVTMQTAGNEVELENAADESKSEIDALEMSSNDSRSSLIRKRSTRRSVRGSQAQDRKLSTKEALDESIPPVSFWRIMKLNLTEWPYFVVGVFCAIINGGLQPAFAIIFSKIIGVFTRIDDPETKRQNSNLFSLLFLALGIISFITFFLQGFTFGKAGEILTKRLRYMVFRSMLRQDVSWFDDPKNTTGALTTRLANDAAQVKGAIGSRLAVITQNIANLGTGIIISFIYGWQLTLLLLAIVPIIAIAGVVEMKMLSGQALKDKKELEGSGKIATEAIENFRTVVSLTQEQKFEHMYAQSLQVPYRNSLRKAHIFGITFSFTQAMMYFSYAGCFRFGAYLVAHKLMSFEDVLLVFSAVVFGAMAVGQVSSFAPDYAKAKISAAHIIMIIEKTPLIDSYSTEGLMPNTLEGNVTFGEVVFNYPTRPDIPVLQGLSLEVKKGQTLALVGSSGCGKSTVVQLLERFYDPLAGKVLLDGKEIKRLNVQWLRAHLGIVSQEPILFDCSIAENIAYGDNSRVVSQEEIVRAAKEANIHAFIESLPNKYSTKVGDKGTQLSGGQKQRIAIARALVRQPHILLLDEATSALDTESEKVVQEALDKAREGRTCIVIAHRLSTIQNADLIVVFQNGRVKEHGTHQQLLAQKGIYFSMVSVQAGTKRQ

Chain of human Smo (Q99835 181-787): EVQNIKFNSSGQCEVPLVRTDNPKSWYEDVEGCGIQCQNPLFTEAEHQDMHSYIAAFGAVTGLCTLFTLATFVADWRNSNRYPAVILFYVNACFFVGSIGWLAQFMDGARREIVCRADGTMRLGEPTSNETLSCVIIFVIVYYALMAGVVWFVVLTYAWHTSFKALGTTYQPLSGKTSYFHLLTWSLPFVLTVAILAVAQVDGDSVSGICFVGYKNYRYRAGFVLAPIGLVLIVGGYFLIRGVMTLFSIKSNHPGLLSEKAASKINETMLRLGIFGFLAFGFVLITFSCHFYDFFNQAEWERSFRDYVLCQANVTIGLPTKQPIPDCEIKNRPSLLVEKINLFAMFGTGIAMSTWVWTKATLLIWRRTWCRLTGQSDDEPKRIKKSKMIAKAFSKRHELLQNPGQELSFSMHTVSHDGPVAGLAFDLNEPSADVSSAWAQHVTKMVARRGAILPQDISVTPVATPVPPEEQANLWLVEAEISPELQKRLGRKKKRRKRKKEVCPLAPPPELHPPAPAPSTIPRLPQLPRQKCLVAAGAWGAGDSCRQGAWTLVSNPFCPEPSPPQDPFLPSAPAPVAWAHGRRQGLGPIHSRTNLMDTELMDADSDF

With `Cc1cnc(-c2cc(N3CCN(C(=O)CCS(C)(=O)=O)CC3)ncc2Cl)c(C)c1` [Example A-116, 5′-chloro-3,5-dimethyl-2′-{4-[3-(methylsulfonyl)propanoyl]piperazin-1-yl}-2,4′-bipyridine] the IC50 [1] was 6.8 nM, the inhibition at 0.05 µM ([1]; 0.05 μM test compound, read-out: Smo % inh. @ 0.05 μM) was 101% and the IC50 [2] was 2.76 nM. For the same compound, the “Gli1 level, % of vehicle control” value [3] was 4.5±0.4% and the P-glycoprotein substrate [4] was “not a P-glycoprotein substrate”.
